Marks after values point to notes of the source that are not given here.
Experiments:
[1] = pH-potentiometric titrations: proton dissociation constants of the ligands and overall stability constants of their In(III) complexes; assay type: physicochemical; settings: pH-pot, T = 25.0 °C, I = 0.20 M (KCl); for logβ [InL2] / logβ [InL3] / logβ [InL]: In(III) complex of the ligand L; for pKa: water
Method: (§1) To characterize the solution stability of the In(III) complexes, pH-potentiometric and UV–vis spectrophotometric titrations were performed in water in the presence of 0.20 M chloride ions. However, stability constants for the HQ complexes could be obtained only by the latter method due to their much worse water solubility compared to the other compounds. HQS was involved as a water-soluble analogue of HQ bearing identical coordination mode. Stability constants of deferiprone were also determined by both methods in the present work to validate our experimental setup and data treatment, since the In(III) ‒ deferiprone system was already characterized by Orvig and collaborators. The hydrolysis of In(III) and its interaction with chloride ions were taken into consideration, and stability constants of the hydoxido and chlorido complexes were utilized for our calculations. As a first step, the proton dissociation constants (Ka) were determined for the ligands (Table 1) showing good agreement with the previously published data (see Table 1). The overall stability constants obtained for the octahedral In(III)-deferiprone complexes by both methods (Table 1) are fairly similar to those reported at 150 mM NaCl. […] Complexes with the same stoichiometry were also formed with the O,N-donor containing HQS (Table 1). […] Stability constants for the HQ complexes (Table 1) were determined by the deconvolution of UV–vis spectra recorded at various pH values (Fig. 1a), and the computed molar absorbance spectra for the individual ligand and complex species are shown in Fig. 1b. Due to the lack of d-d or charge transfer bands, the molar absorbance spectra of the complexes represent similar λmax values to that of the completely deprotonated form of the ligand; although, the shape of the spectra is different and is quite similar to that was found for the Ga(III) complexes.
The pH-potentiometric measurements for the determination of the proton dissociation constants of the ligands (HQS, maltol, deferiprone) and the overall stability constants of their In(III) complexes were carried out at 25.0 ± 0.1 °C in water at an ionic strength of 0.20 M (KCl, Sigma-Aldrich). The titrations were performed with a carbonate-free KOH solution of known concentration (0.20 M). An Orion 710A pH-meter equipped with a Metrohm combined electrode (type 6.0234.100) and a Metrohm 665 Dosimat burette were used for the pH-potentiometric measurements. […] The average water ionization constant, pKw, is 13.76 ± 0.01, which corresponds well to literature data. The reproducibility of the titration points included in the calculations was within 0.005 pH units. The pH-potentiometric titrations were performed in the pH range 2.0–11.5. The initial volume of the samples was 10.0 mL, and the ligand concentration was 3 mM and metal ion-to-ligand ratios of 1:1 to 1:4 were used. The fitting of the titration curves was less than 0.01 mL. (The fitting parameter is the average difference between the experimental and calculated titration curves expressed in the volume of the titrant.) Samples were deoxygenated by bubbling purified argon through them for ca. 10 min prior to the measurements. The proton dissociation constants of the ligands, the stoichiometry and the overall stability constants of the complexes were determined with the computer program HYPERQUAD [60]. Overall stability constants of the complexes (β(MpLqHr)) is defined for the general equilibrium pM + qL + rH ⇌ MpLqHr as β (MpLqHr) = [MpLqHr]/[M]^p[L]^q[H]^r where M denotes the metal ion and L the completely deprotonated ligand. Hydrolysis constants for In(III) and stability constants for the In(III)-chlorido complexes (Table 1) are taken from references. The calculations were always made from the experimental titration data measured in the absence of any precipitate in the solution.

[2] = UV-vis spectrophotometric titrations: proton dissociation constants of the ligands and overall stability constants of their In(III) complexes; assay type: physicochemical; settings: T = 25.0 °C, I = 0.20 M (KCl); for logβ [InL2] / logβ [InL3] / logβ [InL]: In(III) complex of the ligand L; for pKa: water
Method: as §1
Proton dissociation of the ligands (HQ, HQS, maltol, deferiprone) and overall stability constants and the individual spectra of their complexes were calculated with the computer program PSEQUAD [43]. The spectrophotometric titrations were performed on samples of the ligands with or without In(III); the concentration of the ligands was 0.10 mM, and the metal-to-ligand ratios were 1:1, 1:2, 1:3 and 1:4 over the pH range used in pH-potentiometric measurements at 25.0 ± 0.1 °C at an ionic strength of 0.20 M (KCl).

[3] = pM* / pM values computed at pH 7.4 from stability constants; assay type: physicochemical; settings: for pIn (pM = –log[M(III)]): Table S1, does not account for hydrolysis of the metal ion; for pGa* (−log([M] + [M(OH)(1–4)])): pH 7.4, 1 μM Ga(III), computed from stability constants of Ref. 27 (deferiprone) or Ref. 29 (maltol, HQS, HQ); for pGa* (−log([M] + [M(OH)(1–4)])) / pIn* (−log([M] + [M(OH)(1–4)])): 10 μM ligand; for pIn* (−log([M] + [M(OH)(1–4)])): pH 7.4, 1 μM In(III)
Method: To compare the In(III) binding ability of the studied four ligands, pIn* (= negative decadic logarithm of the equilibrium concentration of the unbound metal species) values were calculated at pH 7.4 using the determined stability constants (Table 1).
Table S1. Calculated pM values for the studied In(III) complexes and their Ga analogues,
a Computed on the basis of stability constants taken from Ref. [27]. b Computed on the basis of stability
constants taken from Ref. [29] […]

[4] = design: method as in PMID 25398250; settings: same LMM competitors in tenfold excess, investigated separately; cited from earlier work
[5] = target: T1, human serum albumin (HSA) (Homo sapiens, UniProt P02768); design: method as in PMID 25398250; settings: cited from earlier work
T1 construct: purchased Sigma-Aldrich A8763

[6] = target: T2, apoTf (Homo sapiens, UniProt P02787); assay: Interaction with (apo)Tf: ligand displacement and binding of the intact complex (UV-vis, fluorescence, ultrafiltration); settings: UV–vis and fluorescence, pH 7.40
T2 construct: purchased Sigma-Aldrich T2036
Method: Therefore, UV–vis and fluorescence emission spectra of InQ3 were recorded in the presence of increasing amounts of apoTf (Fig. 5a, b). After a short initial phase, the absorbance band of InQ3 is reduced gradually by the addition of the protein, while the development of the new band at lower wavelengths (at ca. 310 nm) refers to the liberation of HQ. Namely, there is a competition for In(III) ion between the ligand and the iron-binding sites of apoTf. Absorbance values depicted at 370 nm and 310 nm (Fig. 5c) saturate roughly to the corresponding values of the free ligand and outline a sigmoidal shape. Fluorescence intensity of the same sample set (Fig. 5b, d) was enhanced and moderately blue shifted (from λmax = 540 nm to 532 nm) until the addition of ca. 0.2 equiv. apoTf. […] Then, by the addition of more apoTf, intensities decreased and λmax shifted further to shorter wavelengths (527 nm). […] Based on this and the results of apoTf quenching (vide supra) protein binding of the non-dissociated complex is presumed. This is further supported by fluorescence lifetime measurements; where new lifetime components τ3 = 4.7 ± 0.2 ns and τ4 = 13.8 ± 0.4 ns appeared for InQ3 in the presence of 0.1 – 0.3 equiv. apoTf (after 1 min waiting time). […] Here, the sigmoid shape of the UV–vis absorbance was seen again (Fig. S5) and the shifted inflection point in comparison to the titration with apoTf underlines the lower In(III) binding capacity of Tf. […]
In the case of InD3, the absorbance bands of the metal complex and apoTf overlap in great extent, however, spectra can be deconvoluted to the spectra of InD3, deferiprone and apoTf (see Fig S6 for details), and molar fractions of the respective species can be calculated (Fig. 6). Ultrafiltration experiments were carried out as well for the InD3 – apoTf system and the non-protein bound LMM fractions were analyzed by UV–vis spectrophotometry (Fig. 6). […] The complex dissociated in line with the addition of apoTf and a practically quantitative displacement of deferiprone seems to take place by the addition of ca. 0.5 equiv. apoTf. […]

[7] = target: T3, apo-transferrin (apoTf) (Homo sapiens, UniProt P02787); assay: Kinetics of the reaction with apoTf followed by UV-vis spectrophotometry; assay type: binding; settings: pH 7.40 (InCl3: 2 equiv.)
T3 construct: purchased Sigma-Aldrich T2036
Method: Firstly, the kinetics of the reaction between apoTf and InCl3 and the complexes was studied by UV–vis spectrophotometry. The reaction of 2 equiv. […] At the same time Harris et al. have observed slow equilibration with InCl3, that was accelerated (to 6 h) in the presence of NTA [18]. In the case of InQ3 and InD3, the progress of apoTf binding could be followed through the ligand bands of the complexes. […] The Ga(III)-analogue GaQ3 interacted within 1 h with apoTf under similar conditions.
For (apo)Tf containing samples, complex concentrations were 20 μM and 0–2.5 equiv. protein was added. Reference spectra for the complexes, ligands and protein were recorded as well. Samples prepared with blood serum contained three-fold diluted serum and 10 μM metal complexes. UV–vis spectra presented in this paper for complexes InD3 or InQ3 are subtracted by the spectrum of reference protein (HSA (apo)Tf or serum) sample in all cases in favour of the better interpretation of the results.

[8] = target: T3, apo-transferrin (apoTf); settings: in the presence of NTA; cited from earlier work

T3 sequence (P02787 20-698): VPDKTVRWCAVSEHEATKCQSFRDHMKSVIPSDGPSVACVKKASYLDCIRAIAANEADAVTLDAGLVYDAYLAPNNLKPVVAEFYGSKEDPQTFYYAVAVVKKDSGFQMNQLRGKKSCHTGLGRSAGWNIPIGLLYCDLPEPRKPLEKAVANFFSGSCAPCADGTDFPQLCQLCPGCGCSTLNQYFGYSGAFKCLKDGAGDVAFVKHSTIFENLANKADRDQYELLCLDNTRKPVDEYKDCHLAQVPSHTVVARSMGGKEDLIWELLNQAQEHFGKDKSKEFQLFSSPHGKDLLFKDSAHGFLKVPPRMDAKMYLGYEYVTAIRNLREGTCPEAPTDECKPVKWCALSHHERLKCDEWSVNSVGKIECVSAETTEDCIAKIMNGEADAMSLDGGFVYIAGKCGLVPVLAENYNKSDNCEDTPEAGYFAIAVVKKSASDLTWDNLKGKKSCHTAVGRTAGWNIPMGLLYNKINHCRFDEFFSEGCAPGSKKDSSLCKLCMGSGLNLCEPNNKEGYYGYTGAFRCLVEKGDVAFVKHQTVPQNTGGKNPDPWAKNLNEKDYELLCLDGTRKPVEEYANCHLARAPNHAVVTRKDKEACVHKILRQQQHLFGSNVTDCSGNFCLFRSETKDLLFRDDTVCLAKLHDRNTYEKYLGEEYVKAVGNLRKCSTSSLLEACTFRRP
T1 sequence (P02768 25-609): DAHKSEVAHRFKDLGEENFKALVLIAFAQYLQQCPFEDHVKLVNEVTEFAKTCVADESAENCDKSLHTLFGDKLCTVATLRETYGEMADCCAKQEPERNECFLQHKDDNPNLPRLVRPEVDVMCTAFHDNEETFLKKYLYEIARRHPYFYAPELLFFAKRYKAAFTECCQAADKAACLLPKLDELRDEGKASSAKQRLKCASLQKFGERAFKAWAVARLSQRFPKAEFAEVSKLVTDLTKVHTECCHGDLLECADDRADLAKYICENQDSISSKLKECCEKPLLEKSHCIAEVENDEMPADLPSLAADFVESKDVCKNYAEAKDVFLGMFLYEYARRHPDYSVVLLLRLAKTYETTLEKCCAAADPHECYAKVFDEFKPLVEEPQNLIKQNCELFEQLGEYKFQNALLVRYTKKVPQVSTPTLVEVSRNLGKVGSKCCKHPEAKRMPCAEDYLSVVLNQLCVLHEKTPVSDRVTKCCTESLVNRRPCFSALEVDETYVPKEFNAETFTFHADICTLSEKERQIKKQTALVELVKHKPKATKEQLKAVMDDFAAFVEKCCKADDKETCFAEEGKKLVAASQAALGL
T2 sequence (P02787 20-698): as the sequence (P02787 20-698) above

Cc1c(O)c(=O)ccn1C [Deferiprone, 3-Hydroxy-1,2-dimethylpyridin-4(1H)-one]
logβ [InL2] [1]: 23.50 ± 0.06^ h | logβ [InL3] [1]: 32.66 ± 0.08^ h | logβ [InL] [1]: 13.67 ± 0.04^ h | pKa ([1]; read-out: pKa (H2L)): 3.66 ± 0.01 | pKa ([1]; read-out: pKa (HL)): 9.72 ± 0.01 | logβ [InL2] [2]: 23.88 ± 0.06 | logβ [InL3] [2]: 33.45 ± 0.03 | logβ [InL] [2]: 13.72 ± 0.03 | pKa ([2]; read-out: pKa (H2L)): 3.57 ± 0.02 | pIn (pM = –log[M(III)]) [3]: 16.25 | pGa* (−log([M] + [M(OH)(1–4)])) [3]: 8.83^i | pIn* (−log([M] + [M(OH)(1–4)])) [3]: 7.95

Cc1occc(=O)c1[O-].Cc1occc(=O)c1[O-].Cc1occc(=O)c1[O-].[Ga+3] [GaM3, Tris(3-Hydroxy-2-methyl-4H-pyran-4-onato)gallium(III)]
effect of LMM competitors on the complex [4]: practically not affected | interaction with HSA [5]: no interaction

Oc1cccc2cccnc12 [HQ, 8-Hydroxyquinoline]
logβ [InL2] [2]: 22.87 ± 0.03 | logβ [InL3] [2]: 32.64 ± 0.06 | logβ [InL] [2]: 13.43 ± 0.06 | pKa ([2]; read-out: pKa (H2L)): 4.9 ± 0.02 | pKa ([2]; read-out: pKa (HL)): 9.63 ± 0.02 | pIn (pM = –log[M(III)]) [3]: 16.48 | pGa* (−log([M] + [M(OH)(1–4)])) [3]: 7.86^j | pIn* (−log([M] + [M(OH)(1–4)])) [3]: 8.18 | binding via intermolecular interactions to apoTf (and Tf) [6]: can be excluded

O=S(=O)(O)c1ccc(O)c2ncccc12 [HQS, 8-Hydroyquinoline-5-sulfonate]
logβ [InL2] [1]: 21.31 ± 0.07 | logβ [InL3] [1]: 28.95 ± 0.09 | logβ [InL] [1]: 12.64 ± 0.05 | pKa ([1]; read-out: pKa (H2L)): 3.89 ± 0.02 | pKa ([1]; read-out: pKa (HL)): 8.46 ± 0.02 | logβ [InL2] [2]: 21.18 ± 0.06 | logβ [InL3] [2]: 29.66 ± 0.06 | logβ [InL] [2]: 12.29 ± 0.06 | pKa ([2]; read-out: pKa (H2L)): 3.7 ± 0.04 | pKa ([2]; read-out: pKa (HL)): 8.27 ± 0.04 | pIn (pM = –log[M(III)]) [3]: 16.23 | pGa* (−log([M] + [M(OH)(1–4)])) [3]: 7.92^j | pIn* (−log([M] + [M(OH)(1–4)])) [3]: 7.93

[Cl-].[Cl-].[Cl-].[In+3] [InCl3, reference compound]
time to reach equilibrium in the reaction with apoTf [7]: ca. 2 h | equilibration time with Tf [8]: 6 h

Cc1occc(=O)c1O [Maltol, 3-Hydroxy-2-methyl-4H-pyran-4-one]
logβ [InL2] [1]: 18.59 ± 0.03 | logβ [InL3] [1]: 24.38 ± 0.05 | logβ [InL] [1]: 11.03 ± 0.03 | pKa ([1]; read-out: pKa (HL)): 8.47 ± 0.01 | logβ [InL2] [2]: 18.78 ± 0.03 | logβ [InL3] [2]: 25.04 ± 0.06 | logβ [InL] [2]: 10.77 ± 0.03 | pKa ([2]; read-out: pKa (HL)): 8.39 ± 0.02 | pIn (pM = –log[M(III)]) [3]: 14.31 | pGa* (−log([M] + [M(OH)(1–4)])) [3]: 6.00^j | pIn* (−log([M] + [M(OH)(1–4)])) [3]: 6.01

— PMC8960621, “Solution speciation and human serum protein binding of indium(III) complexes of 8-hydroxyquinoline, deferiprone and maltol” (Journal of Biological Inorganic Chemistry, 2022)
